Experimental findings from patent publication US10583109B2, “Use of silver(I) complexes as anticancer agents” (University of Johannesburg, priority 2012, dated 2020) are described below.

Holding throughout (type): cell-based
Data set [1] deals with Caspase-3/7. The data set is described as follows: Caspase-Glo 3/7 assay in SNO-oesophageal cancer cells. Particulars: 100 μM, 24 hours treatment. Here is the method:
The Caspase-Glo®3/7 assay was used to confirm that the structural changes observed are due to apoptotic cell death. In this luminescent based assay, a 1:1 ratio of the Caspase-Glo® reagent was added to treated cells into a microtiter plate. The plate was gently agitated for 30 seconds and incubated for 30 minutes at room temperature. The whole luminescent intensity was measured using a Synergy HT Multi-Detection Microplate reader, where the intensity of the luminescence is proportional to the Caspase-3/7 concentration.
The error bars where constructed based on the standard error of the mean (SEM) where n=6. The significant difference were calculated with respect to the vehicle control (P<**0.001). A relative increase in expression was observed throughout.

In data set [2] the test system is SNO-oesophageal cancer cells. As to conditions: 100 μM, 24 hour treatment. Here is the method: The SNO-oesophageal cancer cells were cultured in Dulbecco's modified Eagles medium (DMEM) containing 10% Foetal bovine serum (FBS), 0.8% Penicillin/Streptomycin/Fungizone and 0.2% Gentamycin. The SNO-oesophageal cancer cells were subcultured every 48 hours and incubated at 37° C. under a 5% CO2 humidified atmosphere. After 48 hours the cells were trypsinized and plated (6×10^5 cells) in 3.5 cm culture dishes and left to cultivate for 24 hours.
MCF-7 breast cancer cells, in terms of a first study, and SNO-oesophageal cancer cells, in terms of a second study, were treated with 10 μM silverthiocyanide complexes (1)-(5), as well as their ligands (Ligand-1 to Ligand-5) over a 24 hour incubation period. These complexes were dissolved in 0.1% Dimethyl sulfoxide (DMSO). The DMSO alone (vehicle control) decreased the viability with approximately 2.2%, signifying its minimal influence in cancer cell growth. For comparative purposes, 100 μM Cisplatin (CDDP) and 25% H2O2 was included which respectively serves as the apoptotic and necrotic controls. Cisplatin was prepared in 0.9% NaCl, whereas H2O2 was prepared in the supplemented DMEM media right before treatment. An untreated negative control (UT) was exposed to similar conditions as the treated cells and monitored during the experimental study.
An AlamarBlue® Viability® (Serotec, UK) assay was performed after a 24 hour treatment with complexes (1)-(5) and their ligands (Ligand-1 to Ligand-5, respectively) to evaluate the cellular effect the instant complexes (and their ligands) may have on the cancer cells. AlamarBlue® dye (10%) was incubated with trypsinized cells over a 2 hour period before the fluorescence was measured with a Synergy HT Multi-Detection Microplate reader (BioTek, Winooski, Vt.) at wavelengths of 530 nm and (excitation) and 590 nm (emission). This fluorescent based assay in particular involves the metabolic oxidation-reduction reaction of resazurin to a reduced resorufin product that is directly proportional to the amount of viable cells.
The percentage cellular viability of differentially treated SNO-oesophageal cells was determined using an AlamarBlue® assay, as depicted in FIG. 7. Different controls (grey) were included: untreated, 0.1% DMSO solvent and apoptotic control (100 μM Cisplatin) as well as the corresponding ligands (10 μM) of complexes (1)-(5). Cells were treated with silver(I) thiocyanate phosphine complexes (1)-(5) at a concentration of 10 μM. The percentages were calculated with respect to the control and error bars were constructed on the basis of Standard Error of the Mean (SEM) where n=9 except for the ligand of compound 4 (n=8). The P-values (*P<0.001 and **P<0.0001) were determined with the Student's T-test to evaluate the significant difference.
The cells were thereafter treated with complexes (6)-(9) at a concentration of 10 μM prepared in 0.1% DMSO. Treatment with either 25% H2O2 or 100 μM CDDP served as controls for necrosis and apoptosis respectively. The CDDP was prepared in 0.9% NaCl while the H2O2 was diluted with supplemented DMEM prior to treatment.
A suspension (100 μl) of the differentially treated cells was added in triplicate to a microtiter plate. In the dark, AlamarBlue® dye (10 μl) was added to each well containing a sample, followed by a 2 hour incubation in a 5% CO2 incubator at 37° C. The fluorescence was read on a Synergy HT Multi-Detection Microplate reader at a wavelength of 530 nm and (excitation) and 590 nm (emission). In terms of this study, the apoptotic control CDDP (100 μM) was included. Error bars represent the standard error of the mean (SEM) where n=9. The Student's T-test was used to determine the significant difference of the treatments with respect to DMSO (P*<0.05 and P**<0.001). The silver(I) nitrate phosphine complexes under evaluation decreased the cancer cell viability to a large extent compared to DMSO except complex (9).
SNO-oesophageal cancer cells were a gift from the University of Pretoria, RSA. […]

Data set [3] has as its system SNO-oesophageal cancer cells.
Data set [4] concerns SNO-oesophageal cancer cells. As to the kind of experiment: Morphological features of SNO-oesophageal cancer cells by inverse light microscopy. As to conditions: 14 μM, 24 hours of treatment. Here is the method:
Morphological studies were done by means of an Axiovert 25 inverted microscope (Carl Zeiss, Göttingen, Germany) with Axio Vision 3.1 software (Carl Zeiss, Göttingen, Germany) using an magnification of 100×.
After 24 hours of treatment with complexes (1)-(5) including their ligands the cells were examined under said Axiovert 25 inverted light microscope. This was done to determine how the complexes of the present invention influence morphology which was compared to 100 μM Cisplatin (apoptotic control) and 15% H2O2 (necrotic control).
Light microscope images indicating the morphology of the differentially treated SNO-oesophageal cancer cells is shown in FIG. 8. An untreated control (a) including 100 μM Cisplatin (b), an apoptotic control and 15% H2O2 (c), and a necrotic control was included. Cells were treated with 10 μM silver(I) thiocyanate phosphine complexes (1)-(5) as well as their separate ligands (Ligand-1 to Ligand-5, respectively) (FIGS. 8d to 8m). Black arrows represent signs of apoptosis, while the white arrows represent signs of necrosis.
An Axiovert 25 inverted microscope was used to examine if these complexes affect the morphological features of the malignant cells in any other way. This was done at a magnification of 100× with the use of Axio Version 3.1 software (Carl Zeiss, Gottingen, Germany).
Morphological studies where done after 24 hours of treatment to determine how these compounds influence/change specific features of the malignant SNO-oesophageal cancer cells, compared to the untreated (UC) and 1% DMSO vehicle control. The treated cancer cells including their controls were examined under an Axiovert 25 inverted light microscope (Carl Zeiss, Göttingen, Germany) with Axio Vision 3.1 software (Carl Zeiss, Göttingen, Germany) using a 100× magnification. In FIG. 19, the morphology of the different controls including Ligand-10 and complexes (10)-(12) are represented. To predict the targeting mechanisms of these compounds, the treated cells were compared to 100 μM Cisplatin (apoptotic control) and 25% H2O2 (necrotic control).

Data set [5] has as its system SNO-oesophageal cancer cells. As to the kind of experiment: Flow cytometric analysis (Annexin-V FITC / PI) of apoptosis and/or necrosis in SNO-oesophageal cancer cells. As to conditions: 14 μM, 24 hours. The procedure: To determine if either apoptosis or necrosis occurred, the cells were double labelled with Annexin-V FITC and Propidium Iodide (PI) by means of an Annexin-V FITC assay kit (Serotec, UK). This was done according to manufacturer's instructions with a few adjustments. Briefly, the cells (±3×10^5 cells/ml) were washed twice with cold phosphate buffered saline (PBS), followed by the addition of 100 μl 1× binding buffer. Two and a half microliters of Annexin-V along with 5 μl PI were added in the dark and was incubated for 15 minutes at room temperature. After incubation, 400 μl 1× binding buffer was added and cells were analysed using the FACSAria flow cytometer (BD Biosciences, San Jose, Calif.) with FACSDiva software (BD Biosciences, San Jose, Calif.) 492 nm (excitation) and 520 nm for Annexin and 488 nm and 575 nm(emission) for PI.
The cell membrane contains a negatively charged phosphatidylserine (PS) on the inner leaflet and is exposed when apoptosis or necrosis takes place. Annexin-V interacts with PS in both apoptotic and necrotic cells, making these cellular deaths undistinguishable. This is overcome by using PI as an alternative label that interacts with the exposed DNA of necrotic cells only, leading to the fluorescent detection of both these labels. Pie charts (FIG. 9) were constructed for all the controls (including Ligand-1 to Ligand-5) and the different silver(I) thiocyanate phosphine complexes (1)-(5).
Pie charts representing the four different flow cytometric quadrants of Annexin-V and […] to determine the mode of cellular death induced in differentially treated SNO-oesophageal cells are represented in FIG. 9. An untreated control (A), apoptotic control (B) and necrotic control (C) were included. Cells were treated with 10 μM of the different ligands including the silver(I) thiocyanate phosphine complexes (1)-(5). An average percentage was calculated for all segments where the SEM is n=3 for all treatments except for 15% H2O2 (n=2). The four segments represent the following: White segment—negative for FITC and PI, Light grey segment—positive for FITC but negative for PI, Dark grey segment—positive for PI but negative for FITC and Black segment—positive for both FITC and PI. Cells undergoing early apoptosis are represented by the light grey segment, while those of late apoptosis and primary necrosis are represented by the black segment. Necrotic cells are represented by the dark grey segment and intact viable cells are shown by the white segment.
Approximately 3×10^5 cells were washed with ice cold phosphate buffered saline solution (PBS). The cells were double labeled using an Annexin-V FITC assay kit adjusting the protocol. A 1× binding buffer (100 μl) was used to fix the cells. Annexin-V (2.5 μl) and Propidium Iodide (PI—5 μl) labels were added respectively followed by a 15 minute incubation, at room temperature, in the dark. After the incubation period, 400 μl of the 1× binding buffer was added, where counting of the cellular events was made using an FACSAria flow cytometer (BD Biosciences, San Jose, Calif.) with FACSDiva software (BD Biosciences, San Jose, Calif.). This technique in particular identifies whether predicted apoptotic cell death (or necrosis) was induced by these complexes.
As observed in FIG. 14, dot blots represent the mode of cellular death induced in the SNO-oesophageal cancer cells after 24 hours of treatment. FIG. 14(a): 0.1% DMSO, FIG. 14(b): 100 μM CDDP, FIG. 14(c): 25% H2O2, FIG. 14(d-i): complexes (6)-(9). An average percentage was calculated for all quadrants where the SEM is n=2 for all treatments. The four quadrants represent the following: Quadrant Q3 is negative for FITC and PI, Quadrant Q4 is positive for FITC but negative for PI, Quadrant Q1 is positive for PI but negative for FITC and Quadrant Q2 is positive for both FITC and PI. Cells undergoing early apoptosis are more likely to be found in Quadrant Q4 while those of late apoptosis and primary necrosis will be found in Quadrant Q2. […]
A general note: Flow cytometry measures light scatter and fluorescence of single cells or particles in a stream.

As for `N.N.[Cl][Pt][Cl]` [Cisplatin, reference compound], the Caspase induction in data set [1] was determined as 2 fold increase. In data set [2], the cells killed was roughly 74%.

`c1ccc(P(c2ccccc2)c2ccccc2)cc1` [Ligand-10, PPh3, reference compound] displayed a viability in data set [3] (14 µM) of 99.03%. Besides, in data set [4], the “signs of apoptosis / cell death (morphology)” value is on record as “minimal cell death similar to apoptosis”. Moreover, the “influence on cellular viability and PS externalisation, flow cytometry” value in data set [5] is listed as “did not influence”.

Regarding `[Br][Ag]([PH](c1ccccc1)(c1ccccc1)c1ccccc1)([PH](c1ccccc1)(c1ccccc1)c1ccccc1)[PH](c1ccccc1)(c1ccccc1)c1ccccc1` [complex (11), AgBr(PPh3)3], the “cancer cell death compared to the vehicle control” value in data set [3] (14 μM, 24 hour treatment) is on record as “significantly induced cancer cell death”. In data set [4], the “necrotic cell death (morphology)” value was “Minimal necrotic cell death” and the “signs of apoptosis / cell death (morphology)” value is “multiple signs of apoptosis”. For the same compound, in data set [5], the “apoptotic cells (early and late stages), flow cytometry” value is listed as 47.23%; the “necrotic cells positive for PI, flow cytometry” value was 14.73%.

Usually viability stands for a per cent measure of how many cells are alive, often set against a control. Lower therefore signals a greater loss of cells.
